Values joined by “and” are separate entries in the source; they are usually repeats but may differ in a detail not shown here. Equal values may be shown once. Toxic doses and inconclusive results are not listed.

From PubChem BioAssay AID330 (DTP/NCI, 2004) come the findings set out here.

This test deals with P388 leukemia ip, CD2F1 mice, survival T/C. Put plainly: NCI In Vivo Anticancer Drug Screen. Data for tumor model P388 Leukemia (intraperitoneal) in CD2F1 (CDF1) mice. Particulars: endpoint: median survival time, higher = longer survival. The method, boiled down: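 Mice carrying the transplanted tumor received test compound or vehicle. Survival was recorded in each group, and the value is the treated-group measurement divided by that of the vehicle-treated control group.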

Where [1] appears, read: dose: 50.0 mg/kg/injection, schedule: Q01DX005 (ip), vehicle: saline with Tween-80.
Where [2] appears, read: dose: 100.0 mg/kg/injection, schedule: Q01DX005 (ip), vehicle: saline with Tween-80.
Where [3] appears, read: dose: 200.0 mg/kg/injection, schedule: Q01DX005 (ip), vehicle: saline with Tween-80.
Setting [4] is: dose: 50.0 mg/kg/injection, schedule: Q01DX005 (ip), vehicle: saline.
[5] abbreviates: dose: 50.0 mg/kg/injection, schedule: Q01DX009 (ip), vehicle: Klucel (hydroxypropylcellulose) (HPC).
Where [6] appears, read: dose: 100.0 mg/kg/injection, schedule: Q01DX009 (ip), vehicle: Klucel (hydroxypropylcellulose) (HPC).
The mark [7] stands for this setting: dose: 100.0 mg/kg/injection, schedule: Q01DX009 (ip), vehicle: saline with Tween-80.
[8] abbreviates: dose: 200.0 mg/kg/injection, schedule: Q01DX009 (ip), vehicle: saline with Tween-80.
Setting [9] is: dose: 400.0 mg/kg/injection, schedule: Q01DX009 (ip), vehicle: saline with Tween-80.
Setting [10] is: dose: 12.5 mg/kg/injection, schedule: Q01DX009 (ip), vehicle: saline.
Setting [11] is: dose: 25.0 mg/kg/injection, schedule: Q01DX009 (ip), vehicle: saline.
Setting [12] is: dose: 50.0 mg/kg/injection, schedule: Q01DX009 (ip), vehicle: saline.
Where [13] appears, read: dose: 60.0 mg/kg/injection, schedule: Q01DX005 (ip), vehicle: saline with Tween-80.
The mark [14] stands for this setting: dose: 120.0 mg/kg/injection, schedule: Q01DX005 (ip), vehicle: saline with Tween-80.
Where [15] appears, read: dose: 50.0 mg/kg/injection, schedule: Q01DX009 (ip), vehicle: saline with Tween-80.

On to `Cc1ccc(S(=O)(=O)N=Nc2c(O)c3ccccc3c3ccccc23)cc1`, for which the T/C under setting [1] is 103 % of control, the T/C under setting [2] is 103 % of control and the T/C under setting [3] is 100 % of control.

For `CN1CCOC(N2CCOCC2)C(C)(C)C1` (stereo not drawn), the T/C by setting is: under setting [4], 92 % of control; (dose: 100.0 mg/kg/injection, schedule: Q01DX005 (ip), vehicle: saline) 88 % of control; (dose: 200.0 mg/kg/injection, schedule: Q01DX005 (ip), vehicle: saline) 100 % of control.

Turning to `COc1cccc2c1NC(OC)C1CC(/C=C/C(=O)N(C)C)=CN1C2=O` (stereo not drawn), the T/C (dose: 320.0 micrograms/kg/injection, schedule: Q01DX005 (ip), vehicle: saline with Tween-80) was 155 % of control.

For `Brc1ccc(C2=NOP(c3ccccc3)(c3ccccc3)(c3ccccc3)C2)cc1`, the T/C was 99 % of control under setting [5] and 96 % of control under setting [6].

Regarding `CCC(CC)NCCNc1cc(OC)cc2cccnc12`, the T/C was 109 % of control (dose: 12.5 mg/kg/injection, schedule: Q01DX005 (ip), vehicle: saline); 108 % of control (dose: 25.0 mg/kg/injection, schedule: Q01DX005 (ip), vehicle: saline); 100 % of control and 103 % of control under setting [4].

Consider `COc1cc2c(cc1Oc1ccc(OC)c3c1CC1c4c(cc(OC)c(OC)c4-3)CCN1C)CC1c3c(cc(OC)c(OC)c3-2)CCN1C` (stereo not drawn), for which the T/C (dose: 20.0 mg/kg/injection, schedule: Q01DX009 (ip), vehicle: water) was 94 % of control; the T/C (dose: 40.0 mg/kg/injection, schedule: Q01DX009 (ip), vehicle: water) was 101 % of control; the T/C (dose: 80.0 mg/kg/injection, schedule: Q01DX009 (ip), vehicle: water) was 93 % of control; the T/C (dose: 160.0 mg/kg/injection, schedule: Q01DX009 (ip), vehicle: water) was 93 % of control.

For `C=CCNC(=S)NCC`, the T/C under setting [7] is 100 % of control, the T/C under setting [8] was 104 % of control and the T/C under setting [9] was 109 % of control.

In the case of `CCN(CC)CCSC(=O)C(O)(c1ccccc1)c1ccccc1`, the T/C is 108 % of control (dose: 2.5 mg/kg/injection, schedule: Q01DX009 (ip), vehicle: saline); 117 % of control (dose: 5.0 mg/kg/injection, schedule: Q01DX009 (ip), vehicle: saline); 101 % of control (dose: 10.0 mg/kg/injection, schedule: Q01DX009 (ip), vehicle: saline); 100 % of control under setting [10]; 90 % of control (dose: 20.0 mg/kg/injection, schedule: Q01DX009 (ip), vehicle: saline); 98 % of control under setting [11]. Also, the T/C (dose: 40.0 mg/kg/injection, schedule: Q01DX009 (ip), vehicle: saline) was 101 % of control; the T/C under setting [12] is 101 % of control (2×) and 107 % of control.

For the compound `C/C(=N\Nc1nc2ccccc2s1)c1ccccn1`, the T/C is, setting by setting: (dose: 12.5 mg/kg/injection, schedule: Q01DX005 (ip), vehicle: saline with Tween-80) 98 % of control; (dose: 25.0 mg/kg/injection, schedule: Q01DX005 (ip), vehicle: saline with Tween-80) 93 % of control; under setting [1], 101 % of control and 91 % of control; under setting [2], 104 % of control.

In the case of `C=CC(C)(C)/C=C/C=O`, the T/C runs as follows: under setting [13], 97 % of control; under setting [14], 92 % of control; (dose: 240.0 mg/kg/injection, schedule: Q01DX005 (ip), vehicle: saline with Tween-80) 104 % of control.

Turning to `N#C/C(=C\c1c(Cl)cccc1Cl)c1nc2ccccc2[nH]1`, the T/C is, setting by setting: under setting [5], 115 % of control; under setting [6], 103 % of control; (dose: 200.0 mg/kg/injection, schedule: Q01DX009 (ip), vehicle: Klucel (hydroxypropylcellulose) (HPC)) 112 % of control.

Regarding `CC(=O)C1(C)CCOC1=O` (stereo not drawn), the T/C runs as follows: under setting [1], 100 % of control; under setting [2], 100 % of control; under setting [3], 109 % of control.

Take `COc1ccc(C(=O)C(=O)c2ccc(OC)c(OC)c2)cc1OC`: the T/C was 96 % of control under setting [7], 96 % of control under setting [8] and 92 % of control under setting [9].

Take `O=C1Nc2c(cccc2-c2ccccc2)C(=O)C1(O)c1ccccc1` (stereo not drawn): the T/C is, setting by setting: (dose: 60.0 mg/kg/injection, schedule: Q01DX005 (ip), vehicle: Klucel (hydroxypropylcellulose) (HPC)) 97 % of control; (dose: 120.0 mg/kg/injection, schedule: Q01DX005 (ip), vehicle: Klucel (hydroxypropylcellulose) (HPC)) 94 % of control; (dose: 240.0 mg/kg/injection, schedule: Q01DX005 (ip), vehicle: Klucel (hydroxypropylcellulose) (HPC)) 90 % of control.

As for `CCn1c(=S)[nH]c2sc3c(c2c1=O)CCCC3`, the T/C under setting [13] was 92 % of control and the T/C under setting [14] was 89 % of control.

With `Oc1ccc(SCc2ccc(NCc3ccccc3)cc2)cc1`, the T/C under setting [15] was 113 % of control and 117 % of control; the T/C under setting [7] was 119 % of control.

Regarding `Brc1cc(-c2ccccc2)on1`, the T/C runs as follows: (dose: 100.0 mg/kg/injection, schedule: Q04DX003 (ip), vehicle: Klucel (hydroxypropylcellulose) (HPC)) 108 % of control; (dose: 200.0 mg/kg/injection, schedule: Q04DX003 (ip), vehicle: Klucel (hydroxypropylcellulose) (HPC)) 103 % of control; (dose: 400.0 mg/kg/injection, schedule: Q04DX003 (ip), vehicle: Klucel (hydroxypropylcellulose) (HPC)) 105 % of control.

As to `COc1ccc(C(=O)Nc2ccccc2-c2ccccc2)cc1OC`, the T/C reads like this: under setting [1], 105 % of control; under setting [2], 97 % of control; under setting [3], 103 % of control.

On to `Cc1cc2ncn(CC(=O)O)c2cc1C`, for which the T/C reads like this: (dose: 50.0 mg/kg/injection, schedule: Q04DX003 (ip), vehicle: saline with Tween-80) 100 % of control; (dose: 100.0 mg/kg/injection, schedule: Q04DX003 (ip), vehicle: saline with Tween-80) 90 % of control.

In the case of `NCCCNCCSP(=O)(O)O`, the T/C is 106 % of control (dose: 12.5 mg/kg/injection, schedule: Q01DX009 (ip), vehicle: saline with Tween-80); 108 % of control under setting [10]; 104 % of control (dose: 25.0 mg/kg/injection, schedule: Q01DX009 (ip), vehicle: saline with Tween-80); 100 % of control and 104 % of control under setting [11]; 95 % of control under setting [15]; 103 % of control and 109 % of control under setting [12]. Also, the T/C (dose: 100.0 mg/kg/injection, schedule: Q01DX009 (ip), vehicle: saline) was 104 % of control and 87 % of control; the T/C under setting [8] is 106 % of control; the T/C (dose: 200.0 mg/kg/injection, schedule: Q01DX009 (ip), vehicle: saline) is 112 % of control.

`COP(=S)(OC)Oc1ccc(S(N)(=O)=O)cc1`: the T/C runs as follows: (dose: 100.0 mg/kg/injection, schedule: Q04DX002 (ip), vehicle: saline with Tween-80) 102 % of control; (dose: 200.0 mg/kg/injection, schedule: Q04DX002 (ip), vehicle: saline with Tween-80) 98 % of control; (dose: 400.0 mg/kg/injection, schedule: Q04DX002 (ip), vehicle: saline with Tween-80) 98 % of control.

In the case of `CCC1CC(O)c2c(O)c3c(c(O)c2C1O)C(=O)c1cccc(O)c1C3=O` (stereo not drawn) (tested in a mixture with another compound), the T/C reads like this: (dose: 0.25 mg/kg/injection, schedule: Q04DX003 (ip), vehicle: other) 102 % of control; (dose: 30.0 micrograms/kg/injection, schedule: Q01DX009 (ip), vehicle: other) 107 % of control; (dose: 60.0 micrograms/kg/injection, schedule: Q01DX009 (ip), vehicle: other) 106 % of control; (dose: 130.0 micrograms/kg/injection, schedule: Q01DX009 (ip), vehicle: other) 98 % of control.

For `c1ccc2c(c1)Nc1ccccc1O2`, the T/C was 98 % of control (dose: 25.0 mg/kg/injection, schedule: Q01DX005 (ip), vehicle: Klucel (hydroxypropylcellulose) (HPC)); 91 % of control (dose: 50.0 mg/kg/injection, schedule: Q01DX005 (ip), vehicle: Klucel (hydroxypropylcellulose) (HPC)); 100 % of control (dose: 100.0 mg/kg/injection, schedule: Q01DX005 (ip), vehicle: Klucel (hydroxypropylcellulose) (HPC)); 99 % of control (dose: 200.0 mg/kg/injection, schedule: Q01DX005 (ip), vehicle: Klucel (hydroxypropylcellulose) (HPC)).
